The source of these data is PubChem BioAssay (NCI).

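In this assay, cells in 96-well plates receive the compound at five concentrations for 48 hours. Endpoints are linearly interpolated between the surrounding concentrations. TGI is the concentration that stops growth completely.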

Common to all, as to assay: NCI-60 cell line screen, 48 h
Experiment [1] deals with SW-620 colon.
For experiment [2], the system named is SNB-75 CNS.
The subject of experiment [3] is SR leukemia.
In experiment [4] the test system is NCI-H522 lung.
Experiment [5] has as its system LOX IMVI melanoma.
Experiment [6] relates to CCRF-CEM leukemia.
For experiment [7], the system named is NCI/ADR-RES ovarian.
In experiment [8] the test system is IGROV1 ovarian.
Experiment [9] has as its system PC-3 prostate.
For experiment [10], the system named is OVCAR-3 ovarian.
The test system of experiment [11] is OVCAR-4 ovarian.
Experiment [12] concerns U251 CNS.
The subject of experiment [13] is NCI-H460 lung.
Experiment [14] deals with MOLT-4 leukemia.
Experiment [15] deals with BT-549 breast.
Experiment [16] concerns HS 578T breast.
The test system of experiment [17] is SN12C renal.
Experiment [18] relates to MDA-N.
The subject of experiment [19] is K-562 leukemia.

Regarding `C=CCn1cnc2c(=O)[nH]c(Nc3ccccc3)nc21`, the TGI in experiment [1], in experiment [2], in experiment [3], in [4], in experiment [5] and in experiment [6] was over 100 µM each time. In addition, the TGI in [7], in [8], in experiment [9], in [10], in experiment [11] and in [12] was over 100 µM each time. Also, the TGI in experiment [13], in experiment [14], in experiment [15], in experiment [16], in experiment [17] and in [18] was over 100 µM in each case.
Turning to `N#Cc1c(-c2ccccc2)c(C#N)c(=O)n(C2OC(CO)C(O)C(O)C2O)c1S` (stereo not drawn), the TGI in [19], in [1], in experiment [2], in experiment [3], in experiment [4] and in experiment [5] was over 100 µM each time. Moreover, the TGI in experiment [6], in [7], in experiment [8], in [9], in experiment [10] and in [13] was over 100 µM throughout. Besides, the TGI in [14], in experiment [15], in [16], in experiment [17] and in experiment [18] was over 100 µM in each case.
Take `CC(=O)Oc1c(C)c2c(c3ccccc13)OC(C)(C)C2`: the TGI is over 100 µM in experiment [19]; 35.8 µM in experiment [1]; 33.1 µM in experiment [2]; 52.8 µM in experiment [3]; 36.7 µM in [4]; over 100 µM in [6]. For the same compound, the TGI in [7] turned out to be 51.4 µM; in [8], 30.9 µM; in experiment [9] it was 47.2 µM; in experiment [10], 52 µM; in [11], 30 µM; in experiment [12], 33.4 µM. Also, the TGI worked out at 34.2 µM in experiment [13]; 37.1 µM in experiment [14]; 39.4 µM in [15]; 53.9 µM in experiment [16]; 34.5 µM in experiment [17]; 24.9 µM in experiment [18].
On to `COC(=O)[C@@H]1Cc2cc(O)c(O)cc2C2(CCN(C)CC2)O1`, for which the TGI in experiment [1], in experiment [2], in [3], in experiment [4], in experiment [5] and in experiment [6] was over 10 µM throughout. Moreover, the TGI in experiment [7], in experiment [8], in [9], in experiment [10], in [11] and in experiment [12] was over 10 µM in each case. For the same compound, the TGI in experiment [13], in [14], in [15], in experiment [16], in experiment [17] and in experiment [18] was over 10 µM throughout.
For the compound `Cc1c(-c2ccccc2)c(C#N)c2nnn(-c3cccc(Cl)c3)c(=O)n12`, the TGI in [19], in [1], in experiment [2], in experiment [3], in [4] and in [5] was over 100 µM each time. Besides, the TGI in experiment [6] was over 100 µM; in experiment [7], over 100 µM; in [8], over 100 µM; in experiment [9] it was 75.9 µM; in experiment [10], over 100 µM; in [11] it was over 100 µM. For the same compound, the TGI in experiment [12], in [13], in experiment [15], in experiment [16], in experiment [17] and in experiment [18] was over 100 µM throughout.
As for `NC(=O)C(Nc1ccc(Cl)cc1)c1cc2cc(Br)ccc2nc1Cl` (stereo not drawn), the TGI in experiment [19], in experiment [1], in [2], in experiment [3], in experiment [4] and in [5] was over 50 µM each time. Also, the TGI in [6], in experiment [7], in experiment [8], in [9], in experiment [10] and in [11] was over 50 µM each time. For the same compound, the TGI in experiment [13], in [14], in [15], in experiment [16], in experiment [17] and in experiment [18] was over 50 µM in each case.
For `COc1ccc(Nc2nc3ccccc3nc2C(=O)O)cc1OC`, the TGI in experiment [19], in experiment [1], in experiment [2], in experiment [3], in experiment [4] and in experiment [5] was over 100 µM in each case. The TGI in [6], in experiment [7], in [8], in [9], in experiment [10] and in experiment [12] was over 100 µM throughout. Besides, the TGI in experiment [13], in experiment [14], in experiment [15], in experiment [16], in experiment [17] and in [18] was over 100 µM in each case.
In the case of `CC(=O)Oc1c2oc3cc(O)c(O)cc3c2c(OC(C)=O)c2oc3cc(O)c(O)cc3c12`, the TGI was over 100 µM in [19]; over 100 µM in [1]; 57.6 µM in [2]; over 100 µM in [3]; 35.8 µM in [4]; over 100 µM in experiment [5]. In addition, the TGI in [6] was over 100 µM; in experiment [7], 86.7 µM; in experiment [8], 91.1 µM; in experiment [9], 56.9 µM; in experiment [11], 62.3 µM; in [12] it was 3.44 µM. The TGI is 32.7 µM in experiment [13]; over 100 µM in experiment [14]; 31.1 µM in experiment [15]; 36.4 µM in [16]; 58.6 µM in experiment [17]; over 100 µM in experiment [18].
